Assay results taken from patent US10765669B2, “Pharmaceutical composition for preventing or treating DYRK-related diseases, containing pyridine-based compound as active ingredient” (KOREA RESEARCH INSTITUTE OF BIOSCIENCE AND BIOTECHNOLOGY, priority 2016, dated 2020).

Experiments:
C-met kinase = C-met kinase (Homo sapiens, UniProt P08581); settings: existing studies; ATP competitive manner; cited from earlier work
DYRK1A [1] = molecular target: T1, DYRK1A (Homo sapiens, UniProt Q13627); assay: NFAT signaling reporter (NFAT-RE-luciferase), cell-based DYRK1A efficacy evaluation in 293T cells; settings: for luciferase increase effect / activity level compared with harmine and CX-4945: 10 μM; for luciferase increase effect: 293T cells, NFAT-RE-luciferase reporter, IM + PMA, DYRK1A overexpressed, among 570 candidates; for activity level compared with harmine and CX-4945: same reporter conditions; for EC50 of luciferase increase effect, fold lower than harmine and CX-4945: NFAT reporter, concentration gradient (FIG. 4); for luciferase activity compared with condition without DYRK1A overexpression: treated with 3 μM, concentration gradient, same conditions
T1 construct: expressed in transfected cells; host or cells: 293T
Description: With respect to the 570 compounds identified as candidate DYRK1A inhibitors through the virtual screening, a secondary effect evaluation was carried out using NFAT signaling reporter which is the already well-established cell-based DYRK1A effect evaluation system (FIG. 3). NFAT signaling reporter has a very high level of dependence on DYRK1A, and thus is effective in the identifying experiment of the proper candidate DYRK1A inhibitors. DYRK1A is known to regulate calcineurin/Nuclear Factor of Activated T cells (NFAT) signals and play an important role in the stage of human development process. NFATc1 transcription factor is usually present as a protein that is phosphorylated in the cytoplasm when the Ca^2+ concentration of the cells is increased, NFATc1 is dephosphorylated by calcineurin phosphatase which is a Ca^2+-dependent protein, and NFATc1 is moved into the nucleus. NFATc1 which has entered into the nucleus and protein partner NFATn form a transcription complex, and the complex binds to the promoter of the target gene to induce the target gene expression. In contrast, DYRK1A phosphorylates NFATc1 to inhibit the movement of NFATc1 into the nucleus, and results in the inhibition of the expression of the target gene. The DYRK1A-inhibitory effect of the 570 candidates was confirmed through the transcription activity of NFATc1, and for this, a luciferase reporter containing NFAT response element (NFAT-RE) useful to measure the transcription activity of NFATc1 was used. A NFAT-RE-luciferase reporter was over-expressed in 293T cells, and was then treated with Ionomycin (IM) and phorbol 12-myristate 13-acetate (PMA) to increase the intracellular concentration of Ca^2+. As a result, the expression of luciferase was increased sharply. […] If the candidate drug treatment in this condition inhibits DYRK1A, the luciferase will be increased.

DYRK1A [2] = molecular target: T1, DYRK1A; assay: Inhibition of Tau protein (Thr212) phosphorylation in 293T cells overexpressing Tau and DYRK1A; type: cell-based; settings: for IC50: 293T cells overexpressing Tau and DYRK1A
GSK3β = GSK3β (Homo sapiens, UniProt P49841); assay: In vitro CMGC kinase assay, GSK3β; type: biochemical; settings: in vitro kinase panel; next to DYRK1A
Chain of GSK3β (P49841 whole entry, species assumed): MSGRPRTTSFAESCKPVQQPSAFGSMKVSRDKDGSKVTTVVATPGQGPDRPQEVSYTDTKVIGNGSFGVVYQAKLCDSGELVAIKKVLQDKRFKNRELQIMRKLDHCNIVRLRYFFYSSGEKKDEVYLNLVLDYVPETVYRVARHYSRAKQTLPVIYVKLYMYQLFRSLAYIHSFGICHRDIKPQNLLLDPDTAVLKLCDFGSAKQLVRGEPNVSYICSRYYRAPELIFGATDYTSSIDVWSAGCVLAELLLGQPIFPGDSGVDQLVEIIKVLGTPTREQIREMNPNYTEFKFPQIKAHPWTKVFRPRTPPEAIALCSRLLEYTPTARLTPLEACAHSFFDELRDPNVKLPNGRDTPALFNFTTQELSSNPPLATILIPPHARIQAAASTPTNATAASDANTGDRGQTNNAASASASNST

DYRK1A [3] = molecular target: T1, DYRK1A; assay: In vitro kinase assay with separated and purified DYRK1A protein; type: biochemical

Chain of C-met kinase (P08581 25-1390): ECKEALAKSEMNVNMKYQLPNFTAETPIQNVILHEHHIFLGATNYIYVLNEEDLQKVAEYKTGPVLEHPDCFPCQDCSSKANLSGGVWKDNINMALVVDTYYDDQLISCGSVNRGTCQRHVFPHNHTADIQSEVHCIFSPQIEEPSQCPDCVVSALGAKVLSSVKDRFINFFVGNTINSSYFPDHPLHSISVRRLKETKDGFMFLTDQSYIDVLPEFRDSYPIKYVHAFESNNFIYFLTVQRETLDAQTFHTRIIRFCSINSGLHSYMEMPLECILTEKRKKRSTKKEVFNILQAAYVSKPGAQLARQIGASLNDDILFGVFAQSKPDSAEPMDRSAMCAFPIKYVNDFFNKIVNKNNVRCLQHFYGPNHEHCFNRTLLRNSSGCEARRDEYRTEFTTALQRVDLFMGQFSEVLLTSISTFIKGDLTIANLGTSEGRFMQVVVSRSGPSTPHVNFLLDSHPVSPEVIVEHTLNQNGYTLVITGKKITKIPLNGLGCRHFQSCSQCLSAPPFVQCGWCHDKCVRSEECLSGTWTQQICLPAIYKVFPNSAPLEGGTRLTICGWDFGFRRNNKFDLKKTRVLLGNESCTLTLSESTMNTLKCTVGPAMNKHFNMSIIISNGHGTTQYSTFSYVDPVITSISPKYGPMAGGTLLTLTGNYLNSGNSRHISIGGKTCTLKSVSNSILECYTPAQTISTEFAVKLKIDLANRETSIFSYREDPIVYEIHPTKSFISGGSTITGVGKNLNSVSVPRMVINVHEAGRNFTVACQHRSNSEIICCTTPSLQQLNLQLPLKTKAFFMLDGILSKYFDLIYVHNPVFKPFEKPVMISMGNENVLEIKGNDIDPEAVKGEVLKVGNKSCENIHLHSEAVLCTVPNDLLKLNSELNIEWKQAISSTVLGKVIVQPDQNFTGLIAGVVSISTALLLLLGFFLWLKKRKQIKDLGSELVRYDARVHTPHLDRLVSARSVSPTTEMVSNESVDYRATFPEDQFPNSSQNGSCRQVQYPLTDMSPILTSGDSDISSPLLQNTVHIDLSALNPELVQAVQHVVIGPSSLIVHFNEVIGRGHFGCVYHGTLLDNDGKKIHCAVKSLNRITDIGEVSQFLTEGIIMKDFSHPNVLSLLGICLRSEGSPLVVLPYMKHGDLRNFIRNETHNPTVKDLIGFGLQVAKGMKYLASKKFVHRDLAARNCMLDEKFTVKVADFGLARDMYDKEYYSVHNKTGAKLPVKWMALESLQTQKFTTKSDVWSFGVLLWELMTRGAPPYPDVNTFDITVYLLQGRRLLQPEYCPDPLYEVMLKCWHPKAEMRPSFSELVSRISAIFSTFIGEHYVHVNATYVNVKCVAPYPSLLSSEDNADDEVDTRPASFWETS

Row | luciferase increase effect (DYRK1A [1]) | activity level compared with harmine and CX-4945 (DYRK1A [1]) | EC50 of luciferase increase effect, fold lower than harmine and CX-4945 (DYRK1A [1]) [times] | IC50 (DYRK1A [2]) [nM] | inhibitory effect on Tau phosphorylation, times stronger than harmine, INDY and proINDY (DYRK1A [2]; same experimental conditions) | inhibitory effect on GSK3β (GSK3β) | inhibition at 0.1 µM (DYRK1A [3]; 100 nM concentration, read-out: inhibitory effect on DYRK1A) [%] | rank of inhibitory effect among DYRK family and CMGC kinases (DYRK1A [3]; in vitro kinase panel (FIG. 6)) | IC50 (DYRK1A [3]; predicted from inhibition at 100 nM) [nM] | SMILES | C-met kinase inhibition (C-met kinase) | luciferase activity compared with condition without DYRK1A overexpression (DYRK1A [1])
1 | highest luciferase increase effect | clearly higher | 10 |  |  |  |  |  |  | Nc1ncc(-c2cnn(C3CCNCC3)c2)cc1-c1nc2cnccc2o1 [formula 3] | inhibitors of the C-met kinase | higher than the luciferase activity of the condition that DYRK1A was not overexpressed
2 | highest luciferase increase effect | clearly higher | 10 | ~50 | 10-60 times | high inhibitory effect | ~95 | strongest inhibitory effect on DYRK1A | ~10 | CC(=O)N1CCC(n2cc(-c3cnc(N)c(-c4nc5cnccc5o4)c3)cn2)CC1 [formula 2] | inhibitors of the C-met kinase | higher than the luciferase activity of the condition that DYRK1A was not overexpressed
3 |  |  |  | ~3000 |  |  |  |  |  | CCN1/C(=C/C(C)=O)Sc2ccc(OC(C)=O)cc21 [proINDY, reference compound] |  | 
4 | highest luciferase increase effect | clearly higher |  |  |  |  |  |  |  | Cn1cc(-c2cnc(N)c(-c3nc4cnccc4o3)c2)cn1 [formula 4] |  | 
